Assay results published in US9987332B2, “Pharmaceutical composition for use in the treatment of a neurodegenerative disease” (SANOFI-AVENTIS DEUTSCHLAND GMBH, priority 2011, dated 2018).

How the values were obtained:
[1] = Kastin et al 2001; McClean et al 2011; cited from earlier work
[2] = Uptake by the brain: levels in mouse brain tissue after i.p. injection; assay type: in vivo; conditions: 2.5 nmol/kg bw ip.
Procedure: Values are the mean±S.E.M. *p<0.05, **p<0.01.
Values are the mean±S.E.M. *p<0.05.
3 doses (2.5 nmol/kg bw, 25 nmol/kg bw and 250 nmol/kg bw, ip.) were tested, and the levels found in mouse brain tissue 30 min and 3 h post injection were examined.

| Levels in the brain at the lowest dose [2] | Compound | Crossing of the blood brain barrier (BBB) [1] |
| --- | --- | --- |
| – | GLP-1: 30-amino acid peptide hormone encoded in the proglucagon gene | have been shown to cross the blood brain barrier |
| did not show an increase | CCCCCCCCCCCCCCCC(=O)N[C@@H](CCC(=O)NCCCC[C@H](NC(=O)[C@H](C)NC(=O)[C@H](C)NC(=O)[C@H](CCC(N)=O)NC(=O)CNC(=O)[C@H](CCC(=O)O)NC(=O)[C@H](CC(C)C)NC(=O)[C@H](Cc1ccc(O)cc1)NC(=O)[C@H](CO)NC(=O)[C@H](CO)NC(=O)[C@@H](NC(=O)[C@H](CC(=O)O)NC(=O)[C@H](CO)NC(=O)[C@@H](NC(=O)[C@H](Cc1ccccc1)NC(=O)[C@@H](NC(=O)CNC(=O)[C@H](CCC(=O)O)NC(=O)[C@H](C)NC(=O)[C@@H](N)Cc1cnc[nH]1)[C@@H](C)O)[C@@H](C)O)C(C)C)C(=O)N[C@@H](CCC(=O)O)C(=O)N[C@@H](Cc1ccccc1)C(=O)N[C@H](C(=O)N[C@@H](C)C(=O)N[C@@H](Cc1c[nH]c2ccccc12)C(=O)N[C@@H](CC(C)C)C(=O)N[C@H](C(=O)N[C@@H](CCCNC(=N)N)C(=O)NCC(=O)N[C@@H](CCCNC(=N)N)C(=O)NCC(=O)O)C(C)C)[C@@H](C)CC)C(=O)O [liraglutide, Arg^34,Lys^26(N^ε(γ-glutamyl(N^α-hexadecanoyl)))GLP-1(7-37)] | have been shown to cross the blood brain barrier |
